Laboratory results as given in ChEMBL document CHEMBL1142000, “(R)-2-(4-Phenylbutyl)dihydrobenzofuran derivatives as melatoninergic agents” (Bioorg Med Chem Lett, 2005).
pKi: −log10 of the molar value.

Columns and labels:
[1] = target: Melatonin receptor type 1A (Homo sapiens, UniProt P48039); test: Binding affinity against Melatonin receptor type 1A stably expressed in NIH3T3 cells using 2-[125I]iodomelatonin; format: cell-based
[2] = target: T1, Melatonin receptor type 1B (Homo sapiens, UniProt P49286); test: Binding affinity against Melatonin receptor type 1B stably expressed in NIH3T3 cells using 2-[125I]iodomelatonin; format: cell-based
T1 sequence (P49286 whole entry): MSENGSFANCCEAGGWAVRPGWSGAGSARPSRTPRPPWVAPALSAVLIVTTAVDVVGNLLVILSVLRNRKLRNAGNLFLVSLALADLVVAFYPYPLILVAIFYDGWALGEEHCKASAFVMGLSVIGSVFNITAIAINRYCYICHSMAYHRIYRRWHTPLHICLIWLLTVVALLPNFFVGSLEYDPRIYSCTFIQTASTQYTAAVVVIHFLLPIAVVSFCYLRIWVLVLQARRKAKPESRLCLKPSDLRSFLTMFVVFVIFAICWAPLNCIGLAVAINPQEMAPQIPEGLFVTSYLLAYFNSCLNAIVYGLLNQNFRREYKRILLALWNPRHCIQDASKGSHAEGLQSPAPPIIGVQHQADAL

Sequence of Melatonin receptor type 1A (P48039 whole entry): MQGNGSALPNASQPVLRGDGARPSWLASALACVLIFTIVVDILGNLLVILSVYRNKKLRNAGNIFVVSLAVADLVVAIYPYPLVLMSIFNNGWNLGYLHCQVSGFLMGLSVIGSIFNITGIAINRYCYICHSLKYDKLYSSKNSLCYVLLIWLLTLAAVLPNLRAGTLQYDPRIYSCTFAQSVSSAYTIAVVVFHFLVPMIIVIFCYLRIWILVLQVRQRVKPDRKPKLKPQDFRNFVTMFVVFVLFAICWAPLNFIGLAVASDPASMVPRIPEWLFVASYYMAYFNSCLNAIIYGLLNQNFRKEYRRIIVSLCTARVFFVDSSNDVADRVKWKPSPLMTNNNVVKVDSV

| Structure (SMILES) | pKi [1] | pKi [2] |
| --- | --- | --- |
| CC(C)C(=O)NCCCc1cccc2c1C[C@@H](CCCCc1ccccc1)O2 | 8.40 | 7.40 |
| CC(=O)NCCCc1cccc2c1C[C@@H](CCCCc1ccccc1)O2 | 8.40 | 8.10 |
| CCNC(=O)NC[C@@H]1C[C@H]1c1c(Cl)ccc2c1C[C@@H](CCCCc1ccccc1)O2 | 7.22 | 7.05 |
| CCNC(=O)NC[C@@H]1C[C@H]1c1cccc2c1C[C@@H](CCCCc1ccccc1)O2 | 8.05 | 7.40 |
| O=C(NCCCc1cccc2c1C[C@@H](CCCCc1ccccc1)O2)C1CC1 | 8.70 | 7.52 |
| CCCC(=O)NC[C@@H]1C[C@H]1c1cccc2c1C[C@@H](CCCCc1ccccc1)O2 | 8.70 | 8.70 |
| CCNC(=O)NCCCc1cccc2c1C[C@@H](CCCCc1ccccc1)O2 | 8.05 | 7.40 |
| CC(C)C(=O)NC[C@@H]1C[C@H]1c1cccc2c1C[C@@H](CCCCc1ccccc1)O2 | 8.22 | 7.05 |

Further lines, results first:

| pKi [1] | pKi [2] | Structure (SMILES) |
| --- | --- | --- |
| 8.70 | 7.52 | CCCC(=O)NCCCc1cccc2c1C[C@@H](CCCCc1ccccc1)O2 |
| 9.00 | 8.70 | CC(=O)NC[C@@H]1C[C@H]1c1cccc2c1C[C@@H](CCCCc1ccccc1)O2 |
| 9.00 | 8.30 | O=C(NC[C@@H]1C[C@H]1c1cccc2c1C[C@@H](CCCCc1ccccc1)O2)C1CC1 |
| 9.00 | 8.70 | CCC(=O)NC[C@@H]1C[C@H]1c1cccc2c1C[C@@H](CCCCc1ccccc1)O2 |
| 9.00 | 7.70 | CCC(=O)NCCCc1cccc2c1C[C@@H](CCCCc1ccccc1)O2 |
